B1: Trypsin: TPCK-treated trypsin (Sigma-Aldrich) used to treat lubricin, BSF and murine joints (protein, UniProt P00760 24-246, looked up)
Serine protease 1: IVGGYTCGANTVPYQVSLNSGYHFCGGSLINSQWVVSAAHCYKSGIQVRLGEDNINVVEGNEQFISASKSIVHPSYNSNTLNNDIMLIKLKSAASLNSRVASISLPTSCASAGTQCLISGWGNTKSSGTSYPDVLKCLKAPILSDSSCKSAYPGQITSNMFCAGYLEGGKDSCQGDSGGPVVCSGKLQGIVSWGSGCAQKNKPGVYTKVCNYVSWIKQTIASN
modifications: TPCK-treated
notes: TPCK-treated trypsin (Sigma-Aldrich) used to treat lubricin, BSF and murine joints

Assays:
[1] = system: purified human lubricin; test: In vitro friction assay of protease-treated purified human lubricin; assay type: biochemical; settings: enzymes 0.5 U/mL, Lubricin = no enzyme, latex:glass bearing
Protocol: (§1) Human lubricin was purified from pooled SF aspirates of patients undergoing total knee replacement as described previously (Jay et al., Gluconj. J. 18:807-815, 2001). BSF was aspirated percutaneously from the lateral aspect of radiocarpal joints of freshly slaughtered cattle with sterile 18 gauge needles after cleansing the skin with alcohol swabs. The cattle were 1 year old and of both sexes (PelFreeze Corp., Little Rock, Ark.). The BSF was centrifuged at 20,000 g at 4° C. to remove cell debris and the BSF was stored at −20° C. Aliquots of purified human lubricin (1 mL, 250 μg/1 mL), and BSF (1 mL) were subjected to protease treatments with CB, NE, α-chymotrypsin, or trypsin. These enzymes were utilized as follows: 1) 0.5 U/mL of CB (Sigma-Aldrich, Saint Louis, Mo., one unit liberates 1 nanomole of 7-amino-4-methylcoumarin from Z-Arg-Arg 7-amido-4-methylcoumarin per min at pH 6.0 at 40° C.) reconstituted in 0.25 M Na acetate buffer, pH 5.5; 2) 0.5 U/mL NE (Sigma-Aldrich, one unit is defined as the release of 1 mole of p-nitrophenol per sec at 37° C.) reconstituted in 100 mM Tris-HCl, 100 mM CaCl2, pH 8.8; 3) 0.5 U/mL of TPCK-treated trypsin (Sigma-Aldrich, one unit causes a change in A253 of 0.001 per min at pH 7.6 at 25° C. using BAEE as a substrate) reconstituted in 50 mM Tris HCl, 20 mM CaCl2, pH 8.0; and 4) 0.5 U/mL of α-chymotrypsin (Sigma-Aldrich, one unit hydrolyzes 1.0 μmole of BTEE per min at pH 7.8 at 25° C.) reconstituted in 80 mM Tris-HCl, 100 mM CaCl2, pH 7.8.
(§2) Aliquots of digested human lubricin and BSF (200 μL) were removed after 2, 4, 6, 12, and 24 hours and the reaction was stopped by adding E-64 (L-trans-epoxysuccinyl-leucyl-amido-(4-guanidino)-butane, Sigma-Aldrich) to a final concentration of 100 μM (CB) or phenylmethanesulfonyl fluoride (PMSF, Sigma-Aldrich) to a final concentration of 1 mM (NE).
(§3) The boundary lubricating abilities of protease-treated human lubricin and BSF were measured using a friction apparatus as reported by Davis et al., J. Biomech. Eng. 101:185-192, 1979. Lubricant (200 μL) was applied between a bearing of latex and a ring of polished glass with a contact area of 1.59 cm^2. The latex was oscillated, under a pressure of 0.35×10^6 N/m^2, against the polished glass with an entraining velocity of 0.37 mm/sec. The bearing system was axially loaded within a gimbals system free to rotate around two perpendicular horizontal axes. The friction apparatus recorded displacements of the gimbals system around the vertical loading axis through a linear displacement voltage transducer, where the output was directly proportional to the frictional torque (F). A bearing load of 70 newtons (N) was related to the coefficient of friction (μ) via Amonton's law, F=μN.
(§4) The μ of the lubricant was recorded at room temperature and was preceded by a baseline measurement of μ with normal saline (NS). Lubrication was manifested by a reduction in μ by the lubricant relative to that of NS. Negative Δμ (−Δμ) values indicate lubrication whereas positive Δμ (+Δμ) indicate friction. Addition of 200 μL of lubricant was followed by bringing the bearing surfaces close enough so that the solution wet both surfaces. After 5 min for equilibration, the latex-coated bearing was brought to rest on the glass as it was oscillating. Voltage measurements were recorded at 1, 3, and 5 min. After 5 min, the surfaces were separated for 2 min and then brought back together for three additional 5 min session. The 3 and 5 min μ values of the last two 5 min session were recorded and averaged, and data were later combined with another duplicate experiment providing 8 distinct measurements of μ.

[2] = system: bovine synovial fluid (BSF); test: In vitro friction assay of protease-treated bovine synovial fluid; assay type: biochemical; settings: enzymes 0.5 U/mL, BSF = no enzyme, latex:glass bearing
Protocol: as §1, §2, §3, §4

[3] = system: excised murine joints; test: Ex vivo friction coefficient of excised murine joints after intra-articular protease (modified Stanton pendulum); set-up: species or system murine (Svev129 mice); settings: for Friction coefficient μ ± S.D.: n = 4; for average increase in μ: after vs before intra-articular injection of 0.05 U, 2 hours at room temperature
Protocol: Murine joint friction measurements were performed ex vivo in a modified Stanton pendulum configuration (Chamely, New Scientist 6:60, 1959) illustrated in FIG. 2. Excised murine joints, from 8 week old Svev129 mice, weighing approximately 20 grams (Taconic, Germantown, N.Y.), were stripped of supporting connective tissue and musculature, while the synovium was left undisturbed. The femur and tibia were severed mid-length and covered with connecting plexiglass tubing. The center of the joint served as the axis of rotation of a 1 Hz pendulum. The joints were loaded with 20 grams and allowed to oscillate. The pendulum was set in motion at an angle of 30° off the perpendicular axis. The pendulum motion was videotaped and post-hoc analysis was performed to establish baseline μ. The deceleration of the pendulum, a=dv/dt, was used to calculate μ. Velocity (v) was calculated from the equation: v=(2 gh)^1/2 where h is the height from where the pendulum reached apogee to the point of maximum velocity at a=0. The μ of murine joint was calculated to be equal a/g. Presently, this calculation neglects aerodynamic drag and assumes g equals 9.81 m/s^2. A 5 μL protease solution containing 0.05 U of CB, NE, α-chymotrypsin, or trypsin was delivered intra-articularly. The limbs were treated at room temperature for 2 hours and the limbs were subsequently allowed to oscillate to estimate μ following treatment with the protease.

[4] = system: purified human lubricin; test: Western blot of protease-treated purified human lubricin (PNA-peroxidase and pAb J108); assay type: biochemical
Protocol: as §1, with “7.8. […]” for “7.8.”
Probing was performed using pAb J108, which recognizes an epitope; […], encoded by exon 3 within the amino-terminus of human lubricin/SZP and present in all alternatively spliced isoforms (Jay et al., J. Orthop. Res. 19:677-687, 2001). […] Immunopositive bands were detected in a darkroom on BioMax film (Kodak, Rochester, N.Y.). […]

[5] = After intra-articular injection of 5 μl containing 0.05 U, 2 hour treatment at room temperature
[6] = Before intra-articular injection (baseline)

Row | Molecule | Change in coefficient of friction Δμ ± S.D. ([1]; 0 hrs) | Change in coefficient of friction Δμ ± S.D. ([1]; 2 hrs) | Change in coefficient of friction Δμ ± S.D. ([1]; 4 hrs) | Change in coefficient of friction Δμ ± S.D. ([1]; 6 hrs) | Change in coefficient of friction Δμ ± S.D. ([1]; 12 hrs) | Change in coefficient of friction Δμ ± S.D. ([1]; 24 hrs) | Change in coefficient of friction Δμ ± S.D. ([2]; 0 hrs) | Change in coefficient of friction Δμ ± S.D. ([2]; 2 hrs) | Change in coefficient of friction Δμ ± S.D. ([2]; 4 hrs) | Change in coefficient of friction Δμ ± S.D. ([2]; 6 hrs) | Change in coefficient of friction Δμ ± S.D. ([2]; 12 hrs) | Change in coefficient of friction Δμ ± S.D. ([2]; 24 hrs) | Friction coefficient μ ± S.D. [3, 5] | Friction coefficient μ ± S.D. [3, 6] | average increase in μ [3] [%] | Degradation of lubricin (band intensities) ([4]; 0.5 U/mL, 2, 4, 6, 12, and 24 hours post-treatment) | pAb J108 immunoreactive bands ([4]; following NE treatment for 2 hours at 37° C.) | PNA and J108 reactivity of lubricin ([4]; after 2 hours of treatment (data not shown))
1 | Neutrophil Elastase: protease (Sigma-Aldrich) used to treat lubricin, BSF and murine joints | −0.068 ± 0.005 | −0.038 ± 0.005 | −0.019 ± 0.004 | 0.004 ± 0.001 | 0.015 ± 0.003 | 0.054 ± 0.006 | −0.061 ± 0.005 | −0.039 ± 0.001 | 0.007 ± 0.001 | 0.009 ± 0.001 | 0.010 ± 0.001 | 0.013 ± 0.002 | 0.0028 ± 0.0008 | 0.0022 ± 0.0005 | 27.3 | time-dependent degradation of lubricin | no pAb J108 immunoreactive bands were detected | 
2 | B1 | −0.068 ± 0.005 | 0.025 ± 0.006 | 0.032 ± 0.005 | 0.038 ± 0.001 | 0.046 ± 0.005 | 0.049 ± 0.005 | −0.061 ± 0.005 | −0.031 ± 0.005 | −0.015 ± 0.002 | 0.005 ± 0.001 | 0.009 ± 0.003 | 0.012 ± 0.004 | 0.0034 ± 0.0003 | 0.0018 ± 0.0001 | 88.9 |  |  | complete loss of PNA and J108 reactivity

Source: patent US20080139458A1, “Methods of Treatment For Injured or Diseased Joints” (priority 2004, published 2008)
